Source: ChEMBL document CHEMBL1157527 (2008)

Test system: Candida albicans
Experiment: Antifungal activity against Candida albicans; note: unit not given here
Format: functional

Row | Structure (SMILES) | p(1/MIC)
1 | CCCC[N+](C)(C)[BH2-]C#N [BUTYL(CYANOBORANYLIDENE)DIMETHYLAMINE] | 3.553
2 | O=P(O)(OCCCCCCCCCCCBr)OC(Cn1cncn1)(Cn1cncn1)c1ccc(F)cc1F | 3.377
3 | CC(=O)OC(Cn1cncn1)(Cn1cncn1)c1ccc(F)cc1F | 3.61
4 | CCCCCCCCCCC[N+](C)(C)[BH-](F)C#N (stereo unspecified) | 1.806
5 | O=C(CCc1ccccc1)Nc1ccc2oc(-c3ccc(F)cc3)nc2c1 | 2.127
6 | O=C(Nc1ccc2oc(-c3ccccc3)nc2c1)SCc1ccccc1 | 1.839
7 | CCCCCCCCCCCCC[N+](C)(C)[BH2-]C#N | 1.763
8 | CCCCCCC(Br)C(=O)OC(Cn1cncn1)(Cn1cncn1)c1ccc(F)cc1F (stereo unspecified) | 1.431
9 | CCc1ccc(-c2nc3cc(NC(=O)OCc4ccc(Cl)cc4)ccc3o2)cc1 | 1.792
10 | C[N+](C)([BH2-]C(=O)O)CCCCCCCCCC[N+](C)(C)[BH2-]C(=O)O | 2.274
11 | Cc1c(C(C)n2ccnc2)c2ccccc2n1Cc1ccc(Br)cc1 (stereo unspecified) | 2.404
12 | C=CCCCCCCCCCOP(=O)(OCCC#N)OC(Cn1cncn1)(Cn1cncn1)c1ccc(F)cc1F (stereo unspecified) | 2.314
13 | CC(Br)C(=O)OC(Cn1cncn1)(Cn1cncn1)c1ccc(F)cc1F (stereo unspecified) | 3.172
14 | Cc1c(Cn2ccnc2)c2ccccc2n1Cc1ccc(F)cc1 | 2.496
15 | C[N+](C)([BH2-]C#N)CCCCCCCCCCCC[N+](C)(C)[BH2-]C#N | 1.982
16 | O=C(OC(Cn1cncn1)(Cn1cncn1)c1ccc(F)cc1F)C(Br)CCCCCCCCCCBr (stereo unspecified) | 1.342
17 | Cc1c(Cn2ccnc2)c2ccccc2n1Cc1ccc(Cl)cc1 | 0.474
18 | C[N+](C)(CCCCCCCCCC[N+](C)(C)[B-](Br)(Br)C#N)[B-](Br)(Br)C#N | 2.017
19 | CCCCCCCCCCCCCCOP(=O)(O)OC(Cn1cncn1)(Cn1cncn1)c1ccc(F)cc1F | 3.208
20 | O=C(OCCCl)OC(Cn1cncn1)(Cn1cncn1)c1ccc(F)cc1F | 3.374
21 | O=C(Nc1ccc2oc(-c3ccc(F)cc3)nc2c1)SCc1ccccc1 | 1.813

Row | Structure (SMILES) | p(1/MIC)
22 | CN(C)c1ccc(-c2nc3cc(NC(=O)CCc4ccccc4)ccc3o2)cc1 | 1.82
23 | Fc1ccc(Cn2cc(Cn3ccnc3)c3ccccc32)c(F)c1 | 1.695
24 | O=C(Nc1ccc2oc(-c3ccc(F)cc3)nc2c1)OCc1ccccc1 | 1.785
25 | Clc1ccc(Cn2cc(Cn3ccnc3)c3ccccc32)cc1 | 1.924
26 | O=C(Cc1ccccc1)Nc1ccc2oc(-c3ccc(F)cc3)nc2c1 | 1.82
27 | CCCCCCCCCCCCCCC[N+](C)(C)[BH2-]C#N | 1.724
28 | CCc1ccc(-c2nc3cc(NC(=O)CCc4ccccc4)ccc3o2)cc1 | 1.813
29 | CC[N+](C)(C)[BH2-]C#N [(CYANOBORANYLIDENE)(ETHYL)DIMETHYLAMINE] | 3.649
30 | C[N+](C)([BH2-]C#N)CCCCCCCCCC[N+](C)(C)[BH2-]C#N | 2.611
31 | CCCCCCCCCCCOP(=O)(O)OC(Cn1cncn1)(Cn1cncn1)c1ccc(F)cc1F | 3.148
32 | CCCCCCCCCCCOP(=O)(OCCC#N)OC(Cn1cncn1)(Cn1cncn1)c1ccc(F)cc1F (stereo unspecified) | 2.494
33 | CN(C)c1ccc(-c2nc3cc(NC(=O)OCc4ccc(Cl)cc4)ccc3o2)cc1 | 1.875
34 | Clc1ccc(Cn2cc(Cn3ccnc3)c3ccccc32)c(Cl)c1 | 1.147
35 | O=C(Nc1ccc2oc(-c3ccc(F)cc3)nc2c1)OCc1ccc(Cl)cc1 | 1.806
36 | CC(C)C(c1cn(Cc2ccc(Cl)cc2)c2ccccc12)n1ccnc1 (stereo unspecified) | 1.138
37 | C[N+](C)([BH2-]C#N)CCCCCCCCCCCCCC[N+](C)(C)[BH2-]C#N | 1.634
38 | CCCCC(Br)C(=O)OC(Cn1cncn1)(Cn1cncn1)c1ccc(F)cc1F (stereo unspecified) | 2.1
39 | C[N+](C)([BH2-]C#N)CC(O)c1ccccc1 (stereo unspecified) | 2.389
40 | C[N+](C)(C)[B-](Br)(Br)C#N | 3.295
41 | C[N+](C)([BH2-]C#N)C[Si](C)(C)C [(CYANOBORANYLIDENE)DIMETHYL[(TRIMETHYLSILYL)METHYL]AMINE] | 3.468
42 | CCCCCCCCCCCC[N+](C)(C)[BH2-]C#N [(CYANOBORANYLIDENE)(DODECYL)DIMETHYLAMINE] | 1.785

Row | Structure (SMILES) | p(1/MIC)
43 | Cc1c(C(C)n2ccnc2)c2ccccc2n1Cc1ccc(F)cc1 (stereo unspecified) | 1.819
44 | C=CCCCC[N+](C)(C)[BH2-]C#N | 1.973
45 | CCCC(Br)C(=O)OC(Cn1cncn1)(Cn1cncn1)c1ccc(F)cc1F (stereo unspecified) | 2.768
46 | N#CCCOP(=O)(OCCCCCCCCCCCBr)OC(Cn1cncn1)(Cn1cncn1)c1ccc(F)cc1F (stereo unspecified) | 3.392
47 | Cc1c(Cn2ccnc2)c2cc(Br)ccc2n1Cc1ccccc1F | 2.415
48 | CCCCCCCCCCC[N+](C)(C)[BH-](Br)C#N (stereo unspecified) | 1.69
49 | Cc1c(Cn2ccnc2)c2cc(Br)ccc2n1Cc1ccc(F)cc1 | 2.415
50 | CCC(Br)C(=O)OC(Cn1cncn1)(Cn1cncn1)c1ccc(F)cc1F (stereo unspecified) | 2.846
51 | CCCCCCC(C)(O)C[N+](C)(C)[BH2-]C#N (stereo unspecified) | 3.344
52 | C=CCCCCCCCCCOP(=O)(O)OC(Cn1cncn1)(Cn1cncn1)c1ccc(F)cc1F | 3.445
53 | CCCCCCCCOP(=O)(OC)OC(Cn1cncn1)(Cn1cncn1)c1ccc(F)cc1F (stereo unspecified) | 2.962
54 | C[N+](C)(CCCCCCCCCC[N+](C)(C)[BH-](Br)C#N)[BH-](Br)C#N (stereo unspecified) | 2.146
55 | CCCCCCCCOP(=O)(OCCC#N)OC(Cn1cncn1)(Cn1cncn1)c1ccc(F)cc1F (stereo unspecified) | 3.091
56 | CN(C)c1ccc(-c2nc3cc(NC(=O)OCc4ccccc4)ccc3o2)cc1 | 2.143
57 | CCCCCCCCCCC[N+](C)(C)[B-](Br)(Br)C#N | 1.591
58 | CCCCCCCCCCC(Br)C(=O)OC(Cn1cncn1)(Cn1cncn1)c1ccc(F)cc1F (stereo unspecified) | 3.412
59 | CCCCCCCCCC(O)C[N+](C)(C)[BH2-]C#N (stereo unspecified) | 2.692
60 | CCCCCCCCCCCOP(=O)(OC)OC(Cn1cncn1)(Cn1cncn1)c1ccc(F)cc1F (stereo unspecified) | 3.138
61 | C=CCCCCCCCCCOP(=O)(OC)OC(Cn1cncn1)(Cn1cncn1)c1ccc(F)cc1F (stereo unspecified) | 2.616
62 | O=C(Nc1ccc2oc(-c3ccccc3)nc2c1)OCc1ccccc1 | 1.505
63 | CCc1ccc(-c2nc3cc(NC(=O)SCc4ccccc4)ccc3o2)cc1 | 2.161

Row | Structure (SMILES) | p(1/MIC)
64 | CCCCC[N+](C)(C)[BH2-]C#N [(CYANOBORANYLIDENE)DIMETHYLPENTYLAMINE] | 2.909
65 | CCCCCCCCCCCCCCOP(=O)(OCCC#N)OC(Cn1cncn1)(Cn1cncn1)c1ccc(F)cc1F (stereo unspecified) | 3.17
66 | CCCCCCCCCCCCCC(=O)OC(Cn1cncn1)(Cn1cncn1)c1ccc(F)cc1F | 3.143
67 | CCc1ccc(-c2nc3cc(NC(=O)OCc4ccccc4)ccc3o2)cc1 | 1.477
68 | CCCCCCCCC[N+](C)(C)[BH2-]C#N [(CYANOBORANYLIDENE)DIMETHYLNONYLAMINE] | 2.176
69 | Cc1c(Cn2ccnc2)c2ccccc2n1Cc1cc(Cl)ccc1Cl | 1.432
70 | C=CCC[N+](C)(C)[BH2-]C#N | 2.672
71 | O=C(Nc1ccc2oc(-c3ccccc3)nc2c1)OCc1ccc(Cl)cc1 | 1.544
72 | Cc1c(Cn2ccnc2)c2cc(Br)ccc2n1Cc1ccc(Cl)cc1 | 1.902
73 | CCCCCCCCCCC[N+](C)(C)[BH2-]C#N | 1.512
74 | Cc1c(Cn2ccnc2)c2cc(Br)ccc2n1Cc1ccccc1Cl | 2.397
75 | C[N+](C)(C)[BH2-]C#N [(CYANOBORANYLIDENE)TRIMETHYLAMINE] | 3.708
76 | Fc1ccc(Cn2cc(Cn3ccnc3)c3ccccc32)cc1 | 1.117
77 | CC(C)(C)C(c1cn(Cc2ccc(Cl)cc2)c2ccccc12)n1ccnc1 (stereo unspecified) | 1.208
78 | O=C(Nc1ccc2oc(-c3ccc(F)cc3)nc2c1)c1ccccc1 | 2.1
79 | O=C(Cc1ccc([N+](=O)[O-])cc1)Nc1ccc2oc(-c3ccc(F)cc3)nc2c1 | 1.532
80 | C[N+](C)([BH2-]C#N)CC1(O)C=CCC1 (stereo unspecified) | 3.142
81 | CC(=O)Oc1ccccc1C(=O)OC(Cn1cncn1)(Cn1cncn1)c1ccc(F)cc1F | 3.413
